Consider one molecule from patent US20140004192A1, “PHARMACEUTICAL FORMULATIONS OF INDIBULIN AND USES THEREOF” (Ziopharm Oncology, Inc., priority 2012, published 2014).

Each structure is given as a SMILES string. Read-outs that look alike come from different tables or passages of the source.

Data set [1] can be described thus: Microcentrifuge dissolution test in model fasted duodenal solution (MFDS). In kind it is physicochemical. As to conditions: dosed at 200 μgA/mL. As to the method: The microcentrifuge dissolution test was performed to assess the ability of the indibulin SDD to sustain solubilized drug levels and to determine suspension stability. Using this method, 10% A HPMCAS-H(HPMCAS high grade), 15% A HPMCAS-H, 20% A HPMCAS-H, 25% A HPMCAS-H, 25% A HPMCAS-M (HPMCAS medium grade) and 50% A HPMCAS-M SDD formulations were tested. Specifically, the microcentrifuge dissolution test measures the supersaturation of drug above the crystalline solubility when dosed into the model fasted duodenal solution (MFDS).
In the microcentrifuge dissolution test, indibulin HPMCAS SDDs were each dosed into MFDS, which is 0.5% taurocholic acid, sodium salt hydrate (NaTC)/1-palmitoyl-2-oleoyl-sn-glycero-3-phosphocholine (POPC) in phosphate buffer solution (PBS, pH 6.5). In each resulted sample, the concentration of dissolved indibulin would have been 200 μg active drug per mL (200 μgA/mL), if all of the indibulin had dissolved. The samples were centrifuged at 13,000 rpm at 37° C. for 1 minute. The supernatant solution of each sample was then analyzed by HPLC. The remaining sample was mixed and allowed to stand undisturbed until next measurement was taken. […]

Data set [2] can be described thus: Suspension stability by microcentrifuge dissolution test. In kind it is physicochemical. As to conditions: dosed into MFDS. The method, then:
Suspension stability of 10% A HPMCAS-H and 25% A HPMCAS-H formulations were evaluated using the microcentrifuge dissolution test, as detailed below.
First, a 0.5 wt % Methocel A (Methylcellulose, Methocel A4M Premium, DOW Chemical Company) vehicle was prepared and later used as the suspension vehicle. Specifically, this vehicle was prepared by adding 0.5 g of Methocel A to 30 mL deionized water at 90° C. and stirring until well dispersed. To the resultant dispersion was added 70 mL of water and the mixture was placed into an ice bath and stirred until Methocel A is dissolved.
A 20 mgA/mL indibulin SDD suspension of each of the 10% A HPMCAS-H and 25% A HPMCAS-H formulations was then prepared by adding the indibulin HPMCAS SDD to the aqueous 0.5 wt % Methocel A vehicle (as prepared above). Each suspension was then tested in the microcentrifuge dissolution test (as described above) immediately after constitution in the aqueous 0.5 wt % Methocel A vehicle (O-hour or Initial), and one hour after the constitution in the aqueous 0.5 wt % Methocel A vehicle. The stability of each suspension was determined by comparing the dissolution profile of the one-hour suspension to the performance of the initial suspension. […]

The nature of data set [3]: Rat pharmacokinetic study, first study. As to conditions: plasma; for bioavailability: ratio of dose-normalized AUC0-10 oral/IV. In kind it is in vivo, rats (Sprague Dawley, male). The method, then:
In the first study, the crystalline indibulin, 10% A and 25% A SDDs were administered p.o. at 10 and 15 mg/kg to rats (Sprague Dawley, male) and plasma concentrations of indibulin were determined at several time points.
In particular, all rats used in this study were fasted 12 hours prior to dose, and food was returned 4 hours post dose. 10% A and 25% A indibulin HPMCAS SDD formulations (as prepared in Example 1(a)) were used in this study. Indibulin in crystalline form was suspended in 0.5% Methocel A at 10 mg/kg, and 15 mg/kg by vortexing and sonicating. The indibulin SDD formulations were made by combining 10% active indibulin SDD at 10 mg/kg and 15 mg/kg, 25% active indibulin SDD at 10 mg/kg and 15 mg/kg using a mortar with 0.5% Methocel A and using a pestle to gradually mix in to solution. There were six rats per group, all animals were weighed and dose volume calculated so that each rat received test article orally at a volume of 10 mL/kg. The first three rats in each group were bled at 0.5, 2, and 6 hours post dose; the remaining three rats in each group were bled at 1, 4, and 10 hours post dose. For blood collection at all time points all animals were anesthetized with an inhalation of 4% isoflurane and 1.5% oxygen, once it was determined that the animal was adequately anesthetized (no reaction to physical stimulation) using a capillary tube the orbital venous plexus was punctured and a volume of 1 mL of blood was collected in to a sodium heparin tube. Once the blood was collected the sodium heparin tube was inverted ten times, and placed on ice until centrifuged for 10 minutes at 2510 rpm. The plasma was decanted in to labeled Eppendorfs and stored at −80° C. until analyzed by HPLC with MS/MS Detection. All data were acquired using Applied Biosystems/MDS-Sciex Analyst Version 1.5, processed; reported using Watson Version 7.3.0.01TM, Thermo Fisher Scientific, Inc.; and are summarized in FIGS. 12 and 14 and Tables 16, 17, and 18. Table 17 is summary of maximum plasma concentrations of indibulin (Cmax), time for maximum plasma concentration to occur (tmax), and plasma area under the curve values (AUC0-t). […] Table 18 also includes comparative data for a solutol/propylene glycol indibulin formulation, administered by IV and orally.

For data set [4] the following is noted: cited from earlier work.
The mark [5] stands for this setting: male, Sprague Dawley, po, First Study, rat p.o. 15 mg/kg (90 mg/m^2).

For `O=C(Nc1ccncc1)C(=O)c1cn(Cc2ccc(Cl)cc2)c2ccccc12` [Bulk Crystalline Drug, indibulin], the AUC90 in data set [1] (MFDS pH 6.5, first 90 min) turned out to be 160 µg·min/mL; in data set [2] (suspension hold time 0 hr), 150 µg·min/mL. The C90 in data set [1] (concentration in MFDS at 90 min) is 1 µg/mL. Besides, the C1200 in data set [1] (concentration in MFDS at 1200 min) worked out at 3 µg/mL. For the same molecule, the Cmax90 in data set [1] (maximum concentration of indibulin in MFDS pH 6.5, first 90 min) turned out to be 2000 ng/mL; in data set [2] (20 mgA/mL suspension in 0.5 wt % Methocel A, hold time 0 hr) it was 2000 ng/mL. For the same molecule, the Tmax stood at 2 h in data set [3] (Sprague Dawley, rat, Male S-D Rats, Oral (Gavage) 10 mg/kg); 1 h in data set [3] (setting [5]); 2 h in data set [3] (male, Sprague-Dawley, po, First Study, rat p.o. 10 mg/kg (60 mg/m^2)). Also, the bioavailability worked out at 1.5% in data set [3] (Sprague Dawley, rat, Male S-D Rats, Oral (Gavage) 15 mg/kg, read-out: F (%)) and 2.4% in data set [3] (Sprague-Dawley, rat, Male S-D Rats, Oral (Gavage) 10 mg/kg, read-out: F (%), absolute oral bioavailability). In data set [3] (Sprague Dawley, rat, Male S-D Rats, Oral (Gavage) 15 mg/kg, read-out: Terminal t1/2 (converted)), the half-life was 5.9 h. In addition, the Cmax is 6 ng/mL in data set [3] (setting [5]); 18 ng/mL in data set [3] (male, Sprague Dawley, rat, po, 10 mg/kg, Male S-D Rats, Oral (Gavage) 10 mg/kg); 16.5 ng/mL in data set [3] (male, Sprague Dawley, rat, po, 15 mg/kg, Male S-D Rats, Oral (Gavage) 15 mg/kg); 18 ng/mL in data set [3] (male, Sprague-Dawley, rat, po, 10 mg/kg, First Study, rat p.o. 10 mg/kg (60 mg/m^2)); 13 ng/mL in data set [3] (male, Sprague-Dawley, rat, po, 15 mg/kg, Male S-D Rats, Oral (Gavage) 15 mg/kg). Moreover, the AUC(0-t) in data set [3] (male, Sprague Dawley, rat, po, 10 mg/kg, Male S-D Rats, Oral (Gavage) 10 mg/kg, read-out: AUC0-10) was found to be 63.6 ng·h/mL; in data set [3] (male, Sprague Dawley, rat, po, 15 mg/kg, First Study, rat p.o. 15 mg/kg (90 mg/m^2), read-out: AUC0-t) it was 31 ng·h/mL; in data set [3] (male, Sprague Dawley, rat, po, 15 mg/kg, Male S-D Rats, Oral (Gavage) 15 mg/kg, read-out: AUC0-10), 56.6 ng·h/mL; in data set [3] (male, Sprague-Dawley, rat, po, 10 mg/kg, First Study, rat p.o. 10 mg/kg (60 mg/m^2), read-out: AUC0-t) it was 61 ng·h/mL. In data set [4], the “solubility in water, methanol, ethanol or 2-propanol” value is listed as “practically insoluble”.
